# Assay results taken from patent US11566062B2, “Methods for modulating protein mannosylation profiles using maduramycin, narasin, or salinomycin” (ARES TRADING S.A., priority 2017, dated 2023).
# “Also recorded” adds a separate entry of the source.
# What was measured:
# Type in all cases: cell-based, Chinese hamster
# mAb1 cells [1] = assay: Toxicity of the polyether ionophores: viable cell density (ViCell) in fed-batch SpinTubes culture; settings: all concentrations tested (100, 250, 500 and 1000 nM; as low as 100 nM), vs control
# Procedure: (§1) Cells expressing mAb1 and mAb2 were inoculated at 0.2×10^6 cells per millilitre (mL).
# (§2) All assays were performed in fed-batch culture. A serum-free chemically defined culture medium was used. It was used as it is, or it was supplemented with polyether ionophore compounds (maduramycin, narasin, salinomycin and lasalocid were all purchased from Sigma-Aldrich) at the desired concentrations. The culture medium was fed, on a regular basis, with a chemically defined feed medium, as well as with glucose in order to keep said glucose level in the range of >0 to about 8 g/L (feeds were done at days 3, 5, 7, 10 and additional glucose feed at day 12).
# For example 1, cultures were performed in SpinTubes® with a working volume of 30 mL. They were incubated at 36.5° C., 5% de CO2, 80% humidity and shaken at 320 rpm. Salinomycin, narasin and maduramycin were tested at 100, 250, 500 and 1000 nM.
# (§3) Each of the fed-batch culture lasted 14 days.
# (§4) Viable cell density and viability were measured with the ViCell® (Beckmann Coulter). Antibody titers were measured with PA-HPLC.
# The cells were cultivated and the results analysed as disclosed in the material and method section. It is noted that the controls (or control conditions) according to the present invention correspond to cells grown without any polyether ionophores.
# mAb1 cells [2] = assay: Viable cell density and viability (ViCell) of mAb1 cells, fed-batch Ambr15; settings: 5 and 10 nM added at the start of the culture
# Procedure: as §1, §2
# (§5) For examples 2 and 3, cultures were performed in Ambr®15 with a working volume of 14 mL (36.5° C., Dissolved Oxygen 40%, 0.1 ml/min N2, pH range: 6.75-7.15, 800 rpm). A temperature shift was performed at day 6 for the cells expressing mAb1. Further conditions are mentioned in Table 2.
# as §3, §4
# (§6) The cells were cultivated and the results analysed as disclosed in the material and method section.
# mAb1 cells [3] = assay: Antibody titre (PA-HPLC) of mAb1 cells, fed-batch Ambr15; settings: 5 and 10 nM added at the start of the culture
# Procedure: as §1, §2, §5, §3, §4, §6
# [4] = test system: mannosylation level of mAb1; assay: Glycosylation (mannosylation) profile of mAb1 by 2AB-UPLC; design: level of ManS species / level of Man6 species (M6) / level of Man7 species / level of Man8 species / level of Man9 species: dose or concentration left out as unconfirmed; settings: for total mannosylation: 10 nM added at the start; for level of Man6 species (M6) / level of Man7 species / level of Man8 species / level of Man9 species / level of ManS species: day 12, added at the start of the culture
# Procedure: as §2, §5
# (§7) Glycosylation profiles were established either by Ultra Performance Liquid Chromatography-2-amino-benzamide labelling technique (2AB-UPLC; mAb1) or by mass spectroscopy (MS; mAB2). Groups of glycans were defined in Table 1.
# as §6
# mAb2 cells [5] = assay: Viable cell density (ViCell) of mAb2 cells, fed-batch Ambr15
# Procedure: as §1, §2, §5, §3, §4, §6
# mAb2 cells [6] = assay: Titre (PA-HPLC) of mAb2 cells, fed-batch Ambr15
# Procedure: as §1, §2, §5, §3, §4, §6
# [7] = test system: mannosylation level of mAb2; assay: Glycosylation (mannosylation) profile of mAb2 by mass spectroscopy; settings: for total mannosylation: 10 nM added at the start; for impact on afucoslyated glycoforms: data non shown; for level of Man5 species / level of Man6 species (M6) / level of Man7 species: day 10, 10 nM added at the start of the culture; for level of fucosylated glycoforms: not shown
# Procedure: as §2, §5, §7, §6
# [8] = 10 nM added at the start of the culture
Compound,VCD decreased by a factor (mAb1 cells [1]),cell growth (VCD) at the end of culture compared to the control (mAb1 cells [2]) [%],protein titre at the end of culture compared to the control (mAb1 cells [3]) [%],level of Man6 species (M6) [4],level of Man7 species [4],level of Man8 species [4],level of Man9 species [4],level of ManS species [4],impact on afucoslyated glycoforms [7],level of Man5 species [7],level of Man6 species (M6) [7],level of Man7 species [7],level of fucosylated glycoforms [7],further results
"CC[C@@H](C(=O)O)[C@@H]1O[C@@H]([C@@H](C)[C@H](O)[C@H](C)C(=O)[C@H](CC)[C@H]2O[C@]3(C=C[C@@H](O)[C@]4(CC[C@@](C)([C@H]5CC[C@](O)(CC)[C@H](C)O5)O4)O3)[C@H](C)C[C@@H]2C)[C@@H](C)C[C@@H]1C [narasin, Narasin]",3,−15,−15,about 6.5%,about 4.5%,about 3.5%,about 0.5%,about 32%,without deeply impacting afucoslyated glycoforms,about 16.5%,about 3%,about 1.0%,decreased,total mannosylation ([4]; after 12 days of culture): about 43%; total mannosylation ([4]; after 14 days of culture): 38.9%; impact on cell growth (mAb2 cells [5]; both concentrations (5 and 10 nM) added at the start of the culture): negative impact on cell growth; titre compared to the control (mAb2 cells [6]; 5 nM added at the start of the culture): +10%; titre compared to the control (mAb2 cells [6]; [8]): +15%; total mannosylation ([7]; after 10 days of culture): about 12.0%; total mannosylation ([7]; after 12 days of culture): 18.0%
"CC[C@@H](C(=O)[C@@H](C)[C@@H](O)[C@H](C)[C@@H]1O[C@@H]([C@@H](CC)C(=O)O)CC[C@@H]1C)[C@H]1O[C@]2(C=C[C@@H](O)[C@]3(CC[C@@](C)([C@H]4CC[C@](O)(CC)[C@H](C)O4)O3)O2)[C@H](C)C[C@@H]1C [salinomycin, Salinomycin]",3,−13,−15,about 3.2%,about 1.5%,about 0.3%,about 0.45%,about 27%,without deeply impacting afucoslyated glycoforms,about 15%,about 2.5%,about 0.65%,decreased,cell growth compared to the control at the end of culture (mAb2 cells [5]; [8]): not more than 10%
Lasalocid,,,,,,,,,,,,,,effect on mannosylation ([4]; concentration not given): no effect on mannosylation; also recorded: no impact on mannosylation
